Measurements published in ChEMBL document CHEMBL1135103, “Design and synthesis of a piperazinylalkylisoxazole library for subtype selective dopamine receptor ligands” (Bioorg Med Chem Lett, 2002).

Tests used:
Test in all cases: biochemical
[1] = target: D(2) dopamine receptor (Homo sapiens, UniProt P14416)
Description: Displacement of the radioligand [3H]spiperone from the cloned human Dopamine receptor D2 long expressed in CHO cells

[2] = target: D(3) dopamine receptor (Homo sapiens, UniProt P35462)
Description: Displacement of the radioligand [3H]YM-09151-2 from cloned human Dopamine receptor D3 expressed in CHO cells

[3] = target: T1, D(4) dopamine receptor (Homo sapiens, UniProt P21917)
T1 sequence (P21917 whole entry): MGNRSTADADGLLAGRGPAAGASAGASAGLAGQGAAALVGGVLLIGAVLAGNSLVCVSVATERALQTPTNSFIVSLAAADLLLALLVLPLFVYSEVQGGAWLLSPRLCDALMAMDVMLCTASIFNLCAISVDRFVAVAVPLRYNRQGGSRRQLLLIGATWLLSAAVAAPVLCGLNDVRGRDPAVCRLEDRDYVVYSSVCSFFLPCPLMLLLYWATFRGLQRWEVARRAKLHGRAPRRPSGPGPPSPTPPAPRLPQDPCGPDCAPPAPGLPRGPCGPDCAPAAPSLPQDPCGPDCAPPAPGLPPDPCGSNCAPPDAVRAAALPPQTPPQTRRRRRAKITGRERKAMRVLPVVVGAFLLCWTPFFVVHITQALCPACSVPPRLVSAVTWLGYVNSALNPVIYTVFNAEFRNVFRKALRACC
Description: Displacement of the radioligand [3H]spiperone from the cloned human dopamine receptor D4 expressed in CHO cells

Chain of D(2) dopamine receptor (P14416 whole entry): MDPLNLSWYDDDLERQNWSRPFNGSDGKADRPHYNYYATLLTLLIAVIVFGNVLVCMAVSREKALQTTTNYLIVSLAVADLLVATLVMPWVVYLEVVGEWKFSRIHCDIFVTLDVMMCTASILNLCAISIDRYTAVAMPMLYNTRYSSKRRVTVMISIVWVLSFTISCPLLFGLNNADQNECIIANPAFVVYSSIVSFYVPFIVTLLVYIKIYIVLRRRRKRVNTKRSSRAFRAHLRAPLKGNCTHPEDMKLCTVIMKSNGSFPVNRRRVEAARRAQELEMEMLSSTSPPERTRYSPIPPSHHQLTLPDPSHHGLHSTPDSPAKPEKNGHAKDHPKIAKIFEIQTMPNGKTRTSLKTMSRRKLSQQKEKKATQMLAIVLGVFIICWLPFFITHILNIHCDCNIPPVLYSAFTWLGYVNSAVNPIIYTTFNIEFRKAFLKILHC
Chain of D(3) dopamine receptor (P35462 whole entry): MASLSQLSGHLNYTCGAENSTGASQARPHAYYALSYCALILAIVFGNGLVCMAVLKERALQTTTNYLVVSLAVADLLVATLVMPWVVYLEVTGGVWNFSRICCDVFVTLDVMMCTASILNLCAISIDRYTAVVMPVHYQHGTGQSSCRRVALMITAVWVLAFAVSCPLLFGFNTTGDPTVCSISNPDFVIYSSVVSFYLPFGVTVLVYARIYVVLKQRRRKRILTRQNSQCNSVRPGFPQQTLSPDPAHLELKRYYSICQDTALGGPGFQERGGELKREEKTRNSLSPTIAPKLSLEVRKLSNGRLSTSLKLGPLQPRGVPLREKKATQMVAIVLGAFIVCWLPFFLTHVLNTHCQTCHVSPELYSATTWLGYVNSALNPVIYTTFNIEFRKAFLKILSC

SMILES	Ki [1] [nM]	Ki [2] [nM]	Ki [3] [nM]
COc1ccccc1N1CCN(CCCCc2cc(-c3cccc([N+](=O)[O-])c3)no2)CC1	295	6	50
c1ccc(-c2cc(CCCCN3CCN(c4ccccc4)CC3)on2)cc1	3370	18	541
COc1ccc(-c2cc(CCCCN3CCN(C(c4ccccc4)c4ccccc4)CC3)on2)c(OC)c1	3830	16	1120
COc1ccc(-c2cc(CCCCN3CCN(c4ccccc4)CC3)on2)cc1OC	3390	24	774
CCOc1ccccc1N1CCN(CCCCc2cc(-c3cccs3)no2)CC1	194	3.9	12
COc1ccccc1N1CCN(CCCCc2cc(-c3ccc(F)cc3)no2)CC1	321	23	33
C(=C\c1cc(CCCCN2CCN(C(c3ccccc3)c3ccccc3)CC2)on1)/c1ccccc1	491	40	603
Cc1ccccc1N1CCN(CCCCc2cc(-c3ccccc3)no2)CC1	6510	292	683
COc1ccc(-c2cc(CCCCN3CCN(C(c4ccccc4)c4ccccc4)CC3)on2)cc1OC	2620	20	2440
COc1ccc(-c2cc(CCCCN3CCN(c4ccccc4)CC3)on2)c(OC)c1	2200	16	76
CCOc1ccccc1N1CCN(CCCCc2cc(-c3cccc([N+](=O)[O-])c3)no2)CC1	95	19	51
COc1ccccc1N1CCN(CCCCc2cc(-c3ccccc3)no2)CC1	1730	9.5	198
c1ccc(N2CCN(CCCCc3cc(-c4cccs4)no3)CC2)cc1	4140	15	117
COc1ccc(-c2cc(CCCCN3CCN(c4ccccc4C)CC3)on2)cc1OC	1400	38	413
COc1ccc(-c2cc(CCCCN3CCN(c4ccccc4F)CC3)on2)cc1OC	5150	20	233
Fc1ccc(-c2cc(CCCCN3CCN(C(c4ccccc4)c4ccccc4)CC3)on2)cc1	1460	30	1350
Fc1ccc(-c2cc(CCCCN3CCN(c4ccccc4)CC3)on2)cc1	2530	12	96
COc1ccccc1N1CCN(CCCCc2cc(/C=C/c3ccccc3)no2)CC1	964	15	88
CCOc1ccccc1N1CCN(CCCCc2cc(-c3ccccc3)no2)CC1	341	9	34
CCOc1ccccc1N1CCN(CCCCc2cc(-c3ccc(OC)c(OC)c3)no2)CC1	119	2.6	28
O=[N+]([O-])c1cccc(-c2cc(CCCCN3CCN(c4ccccc4)CC3)on2)c1	1470	60	1700
C(=C\c1cc(CCCCN2CCN(c3ccccc3)CC2)on1)/c1ccccc1	9720	27	346
c1ccc(-c2cc(CCCCN3CCN(C(c4ccccc4)c4ccccc4)CC3)on2)cc1	486	15	2240
COc1ccccc1N1CCN(CCCCc2cc(-c3cccs3)no2)CC1	726	4.7	21
O=[N+]([O-])c1cccc(-c2cc(CCCCN3CCN(C(c4ccccc4)c4ccccc4)CC3)on2)c1	1520	19	2310
c1ccc(C(c2ccccc2)N2CCN(CCCCc3cc(-c4cccs4)no3)CC2)cc1	620	52	2150
COc1ccc(-c2cc(CCCCN3CCN(c4ccccc4OC)CC3)on2)cc1OC	418	5.2	257
COc1ccc(-c2cc(CCCCN3CCN(c4ccccc4OC)CC3)on2)c(OC)c1	440	6.5	34
Fc1ccccc1N1CCN(CCCCc2cc(/C=C/c3ccccc3)no2)CC1	585	10	58
Cc1ccccc1N1CCN(CCCCc2cc(-c3cccs3)no2)CC1	2110	163	465
